Test results reported in BigSolDB 2.1.

CCCCN1CCCCC1C(=O)Nc1c(C)cccc1C.Cl (stereo unspecified)
solubility (mole fraction)
Conditions | 293.15 K | 298.15 K | 303.15 K | 308.15 K | 313.15 K | 318.15 K | 323.15 K | 328.15 K | 333.15 K
in DMF | 0.0036 | 0.0049 | 0.0062 | 0.0079 | 0.0096 | 0.0117 | 0.0128 | 0.0149 | 0.0172
in acetic acid | 0.0322 | 0.0367 | 0.0399 | 0.0475 | 0.0601 | 0.0702 | 0.0879 | 0.109 | 0.13
in ethanol | 0.0087 | 0.0099 | 0.0115 | 0.0139 | 0.0169 | 0.0207 | 0.0254 | 0.0312 | 0.0372
in isopropanol | 0.002 | 0.0023 | 0.0028 | 0.0032 | 0.0037 | 0.0045 | 0.0051 | 0.006 | 0.0069
in methanol | 0.0116 | 0.014 | 0.0167 | 0.0206 | 0.0249 | 0.0295 | 0.0346 | 0.0407 | –
in n-butanol | 0.0108 | 0.0121 | 0.0142 | 0.0164 | 0.0198 | 0.0236 | 0.0288 | 0.0355 | 0.0412
in n-propanol | 0.0051 | 0.0058 | 0.0084 | 0.0101 | 0.0135 | 0.0172 | 0.0216 | 0.0281 | 0.0342
in water | 0.0017 | 0.0019 | 0.0021 | 0.0022 | 0.0025 | 0.0028 | 0.0032 | 0.0036 | 0.0041
